US8133851B2, “Heteroaroyl-substituted serine amides” (BASF SE, priority 2007, dated 2012)

For `CNC(=O)C(NC(=O)c1cn(C)nc1C(F)(F)F)C1(OC(=O)N(C)C)CCC1` (stereo not shown) [Example 1, Dimethylcarbamic acid 1-{methylcarbamoyl-[(1-methyl-3-trifluoromethyl-1H-pyrazole-4-carbonyl)amino]methyl}cyclobutyl ester], the melting point was 190 °C.
